Reference: patent US9850283B2, “Macrocyclic inhibitors of the PD-1/PD-L1 and CD80(B7-1)/PD-L1 protein/protein interactions” (BRISTOL-MYERS SQUIBB COMPANY, priority 2013, dated 2017)
pIC50: −log10 of the molar value. Positions of bridges follow the written chain, without caps; N, C: chain ends. Non-standard residues stand in square brackets, D forms with d. Residues, ends and D or L forms follow the SMILES beside them. ξ: configuration not given here. Bta = N[C@@H](Cc1csc2ccccc12)C(=O)O; Hyp = O=C(O)[C@@H]1C[C@@H](O)CN1; NMeNle = CCCC[C@H](NC)C(=O)O; NMeA = CN[C@@H](C)C(=O)O; ξC = NC(CS)C(=O)O

Columns and labels:
[1] = biological target: T1, Human PD-L1/PD-1 (Homo sapiens, UniProt Q9NZQ7); test: HTRF PD-1-Ig/PD-L1-His binding assay (human PD-L1); conditions: cluster symbol; read-out: HTRF IC50 cluster
T1 construct: made in house; host or cells: HEK293T
Method in brief: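 Soluble PD-1-Ig binding to PD-L1-His measured by HTRF in dPBS with 0.1% BSA and 0.05% Tween-20. Detection used europium cryptate anti-Ig antibody (1 nM final) and APC anti-His antibody (20 nM final) added on top of the binding reaction.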

[2] = biological target: T2, LK35.2-hPD-L1 cells / PE-labeled PD-1-Ig (Homo sapiens, UniProt Q9NZQ7); test: LK35.2-hPD-L1 cell binding high-content screening assay; format: cell-based; conditions: cell binding assay, cell line not given; cluster symbol; read-out: CBA IC50 cluster
T2 construct: expressed in transfected cells; host or cells: LK35.2 mouse B cell line
Method in brief: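 Binding of PE-conjugated human PD-1-Ig (1 nM final) to human PD-L1 stably expressed on a mouse B-cell line (LK35.2) was measured by high-content imaging after washes. Compound and labeled PD-1-Ig were co-incubated 1 h at 37 °C with cells in RPMI/10% FCS.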

T2 sequence (Q9NZQ7 19-290): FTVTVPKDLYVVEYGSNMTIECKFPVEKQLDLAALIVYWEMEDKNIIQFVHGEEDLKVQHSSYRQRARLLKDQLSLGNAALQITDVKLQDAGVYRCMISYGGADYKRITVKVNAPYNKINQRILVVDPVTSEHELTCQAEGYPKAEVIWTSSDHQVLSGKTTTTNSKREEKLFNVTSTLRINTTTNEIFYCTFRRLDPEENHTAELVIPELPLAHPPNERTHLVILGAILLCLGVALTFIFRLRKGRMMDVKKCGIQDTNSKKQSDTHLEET
T1 sequence (Q9NZQ7 with tags, fused parts or gaps): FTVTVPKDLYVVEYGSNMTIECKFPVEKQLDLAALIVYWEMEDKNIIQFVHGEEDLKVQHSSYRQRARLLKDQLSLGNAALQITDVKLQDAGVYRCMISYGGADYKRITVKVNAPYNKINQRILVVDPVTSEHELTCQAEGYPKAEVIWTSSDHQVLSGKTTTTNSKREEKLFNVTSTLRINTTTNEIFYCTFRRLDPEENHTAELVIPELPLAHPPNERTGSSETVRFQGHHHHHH

Row | Compound | pIC50 [1] | pIC50 [2]
1 | CCCC[C@H]1C(=O)N(C)[C@@H](C)C(=O)N[C@@H](CCCNC(=N)N)C(=O)NC(C(=O)NCC(N)=O)CSCC(=O)N[C@@H](Cc2ccc(O)cc2)C(=O)N(C)[C@@H](C)C(=O)N[C@@H](CC(N)=O)C(=O)N2CCC[C@H]2C(=O)N[C@@H](Cc2cnc[nH]2)C(=O)N[C@@H](CC(C)C)C(=O)N2CCC[C@H]2C(=O)N[C@@H](Cc2c[nH]c3ccccc23)C(=O)N[C@@H](CO)C(=O)N[C@@H](Cc2csc3ccccc23)C(=O)N1C (stereo partly drawn) [Example 9053] ({CH2CO}-Y[NMeA]NPHLPWS[Bta][NMeNle][NMeA]R[ξC]G-NH2; thioether N-14) | 7.52 to 8.17 | 7.14 to 8.32
2 | CCCC[C@H]1C(=O)N(C)[C@@H](C)C(=O)N[C@@H](CCCNC(=N)N)C(=O)NC(C(=O)NCC(N)=O)CSCC(=O)N[C@@H](Cc2ccc(O)cc2)C(=O)N(C)[C@@H](C)C(=O)N[C@@H](CC(N)=O)C(=O)N2CCC[C@H]2C(=O)N[C@@H](Cc2cnc[nH]2)C(=O)N[C@@H](CC(C)C)C(=O)N2CCC[C@H]2C(=O)N[C@@H](Cc2c[nH]c3ccccc23)C(=O)N[C@@H](CO)C(=O)N[C@@H](Cc2c[nH]c3ccccc23)C(=O)N1C (stereo partly drawn) [Example 9054] ({CH2CO}-Y[NMeA]NPHLPWSW[NMeNle][NMeA]R[ξC]G-NH2; thioether N-14) | 8.17 to 9.41 | 7.14 to 8.32
3 | CCCC[C@H]1C(=O)N(C)[C@@H](C)C(=O)N[C@@H](CCCNC(=N)N)C(=O)NC(C(=O)NCC(N)=O)CSCC(=O)N[C@@H](Cc2ccc(O)cc2)C(=O)N(C)[C@@H](C)C(=O)N[C@@H](CC(N)=O)C(=O)N2CCC[C@H]2C(=O)N[C@@H](Cc2cnc[nH]2)C(=O)N[C@@H](CC(C)C)C(=O)N2C[C@H](O)C[C@H]2C(=O)N[C@@H](Cc2c[nH]c3ccccc23)C(=O)N[C@@H](CO)C(=O)N[C@@H](Cc2c[nH]c3ccccc23)C(=O)N1C (stereo partly drawn) [Example 9055] | 8.17 to 9.41 | 8.33 to 9.80
4 | CCCC[C@H]1C(=O)N[C@@H](CCCNC(=N)N)C(=O)NC(C(=O)NCC(N)=O)CSCC(=O)N[C@@H](Cc2ccc(O)cc2)C(=O)N(C)[C@@H](C)C(=O)N[C@@H](CC(N)=O)C(=O)N2CCC[C@H]2C(=O)N[C@@H](Cc2cnc[nH]2)C(=O)N[C@@H](CC(C)C)C(=O)N2C[C@H](O)C[C@H]2C(=O)N[C@@H](Cc2c[nH]c3ccccc23)C(=O)N[C@@H](CO)C(=O)N[C@@H](Cc2csc3ccccc23)C(=O)N(C)[C@@H](C)C(=O)N1C (stereo partly drawn) [Example 9056] ({CH2CO}-Y[NMeA]NPHL[Hyp]WS[Bta][NMeA][NMeNle]R[ξC]G-NH2; thioether N-14) | 8.17 to 9.41 | 8.33 to 9.80
5 | CCCC[C@H]1C(=O)N(C)[C@@H](C)C(=O)N[C@@H](CCCNC(=N)N)C(=O)NC(C(=O)NCC(N)=O)CSCC(=O)N[C@@H](Cc2ccc(O)cc2)C(=O)N(C)[C@@H](C)C(=O)N[C@@H](CC(N)=O)C(=O)N2CCC[C@H]2C(=O)N[C@@H](Cc2cnc[nH]2)C(=O)N[C@@H](CC(C)C)C(=O)N2C[C@H](O)C[C@H]2C(=O)N[C@@H](Cc2c[nH]c3ccccc23)C(=O)N[C@@H](CO)C(=O)N[C@@H](Cc2csc3ccccc23)C(=O)N1C (stereo partly drawn) [Example 9058] ({CH2CO}-Y[NMeA]NPHL[Hyp]WS[Bta][NMeNle][NMeA]R[ξC]G-NH2; thioether N-14) | 8.17 to 9.41 | 8.33 to 9.80
6 | CCCC[C@H]1C(=O)N(C)[C@@H](CCCC)C(=O)N[C@@H](CCCNC(=N)N)C(=O)NC(C(=O)NCC(N)=O)CSCC(=O)N[C@@H](Cc2ccc(O)cc2)C(=O)N(C)[C@@H](C)C(=O)N[C@@H](CC(N)=O)C(=O)N2CCC[C@H]2C(=O)N[C@@H](CC(N)=O)C(=O)N[C@@H](CC(C)C)C(=O)N2CCC[C@H]2C(=O)N[C@@H](Cc2c[nH]c3ccccc23)C(=O)N[C@@H](CO)C(=O)N[C@@H](Cc2c[nH]c3ccccc23)C(=O)N1C (stereo partly drawn) [Example 9059] ({CH2CO}-Y[NMeA]NPNLPWSW[NMeNle][NMeNle]R[ξC]G-NH2; thioether N-14) | 7.52 to 8.17 | 7.14 to 8.32
7 | CCCC[C@H]1C(=O)N(C)[C@@H](CCCC)C(=O)N[C@@H](CCCNC(=N)N)C(=O)NC(C(=O)NCC(N)=O)CSCC(=O)N[C@@H](Cc2ccc(O)cc2)C(=O)N(C)[C@@H](C)C(=O)N[C@@H](CC(N)=O)C(=O)N2CCC[C@H]2C(=O)N[C@@H](CC(N)=O)C(=O)N[C@@H](CC(C)C)C(=O)N2CCC[C@H]2C(=O)N[C@@H](Cc2c[nH]c3ccccc23)C(=O)N[C@@H](CO)C(=O)N[C@@H](Cc2csc3ccccc23)C(=O)N1C (stereo partly drawn) [Example 9060] ({CH2CO}-Y[NMeA]NPNLPWS[Bta][NMeNle][NMeNle]R[ξC]G-NH2; thioether N-14) | 8.17 to 9.41 | 8.33 to 9.80
8 | CCCC[C@H]1C(=O)N(C)[C@@H](CCCC)C(=O)N[C@@H](CCCNC(=N)N)C(=O)NC(C(=O)NCC(N)=O)CSCC(=O)N[C@@H](Cc2ccc(O)cc2)C(=O)N(C)[C@@H](C)C(=O)N[C@@H](CC(N)=O)C(=O)N2CCC[C@H]2C(=O)N[C@@H](CC(N)=O)C(=O)N[C@@H](CC(C)C)C(=O)N2C[C@H](O)C[C@H]2C(=O)N[C@@H](Cc2c[nH]c3ccccc23)C(=O)N[C@@H](CO)C(=O)N[C@@H](Cc2c[nH]c3ccccc23)C(=O)N1C (stereo partly drawn) [Example 9061] ({CH2CO}-Y[NMeA]NPNL[Hyp]WSW[NMeNle][NMeNle]R[ξC]G-NH2; thioether N-14) | 8.17 to 9.41 | 8.33 to 9.80
9 | CCCC[C@H]1C(=O)N(C)[C@@H](CCCC)C(=O)N[C@@H](CCCNC(=N)N)C(=O)NC(C(=O)NCC(N)=O)CSCC(=O)N[C@@H](Cc2ccc(O)cc2)C(=O)N(C)[C@@H](C)C(=O)N[C@@H](CC(N)=O)C(=O)N2CCC[C@H]2C(=O)N[C@@H](CC(N)=O)C(=O)N[C@@H](CC(C)C)C(=O)N2C[C@H](O)C[C@H]2C(=O)N[C@@H](Cc2c[nH]c3ccccc23)C(=O)N[C@@H](CO)C(=O)N[C@@H](Cc2csc3ccccc23)C(=O)N1C (stereo partly drawn) [Example 9062] ({CH2CO}-Y[NMeA]NPNL[Hyp]WS[Bta][NMeNle][NMeNle]R[ξC]G-NH2; thioether N-14) | 8.17 to 9.41 | 8.33 to 9.80

Continued, values first:

Row | pIC50 [1] | pIC50 [2] | Compound
10 | 8.17 to 9.41 | 8.33 to 9.80 | CCCC[C@H]1C(=O)N(C)[C@@H](CCCC)C(=O)N[C@@H](CCCNC(=N)N)C(=O)NC(C(=O)NCC(N)=O)CSCC(=O)N[C@@H](Cc2ccc(O)cc2)C(=O)N(C)[C@@H](C)C(=O)N[C@@H](CC(N)=O)C(=O)N2CCC[C@H]2C(=O)N[C@@H](Cc2cnc[nH]2)C(=O)N[C@@H](CC(N)=O)C(=O)N2CCC[C@H]2C(=O)N[C@@H](Cc2c[nH]c3ccccc23)C(=O)N[C@@H](CO)C(=O)N[C@@H](Cc2c[nH]c3ccccc23)C(=O)N1C (stereo partly drawn) [Example 9063] ({CH2CO}-Y[NMeA]NPHNPWSW[NMeNle][NMeNle]R[ξC]G-NH2; thioether N-14)
11 | 8.17 to 9.41 | 8.33 to 9.80 | CCCC[C@H]1C(=O)N(C)[C@@H](CCCC)C(=O)N[C@@H](CCCNC(=N)N)C(=O)NC(C(=O)NCC(N)=O)CSCC(=O)N[C@@H](Cc2ccc(O)cc2)C(=O)N(C)[C@@H](C)C(=O)N[C@@H](CC(N)=O)C(=O)N2CCC[C@H]2C(=O)N[C@@H](Cc2cnc[nH]2)C(=O)N[C@@H](CC(N)=O)C(=O)N2CCC[C@H]2C(=O)N[C@@H](Cc2c[nH]c3ccccc23)C(=O)N[C@@H](CO)C(=O)N[C@@H](Cc2csc3ccccc23)C(=O)N1C (stereo partly drawn) [Example 9064] ({CH2CO}-Y[NMeA]NPHNPWS[Bta][NMeNle][NMeNle]R[ξC]G-NH2; thioether N-14)
12 | 8.17 to 9.41 | 8.33 to 9.80 | CCCC[C@H]1C(=O)N(C)[C@@H](CCCC)C(=O)N[C@@H](CCCNC(=N)N)C(=O)NC(C(=O)NCC(N)=O)CSCC(=O)N[C@@H](Cc2ccc(O)cc2)C(=O)N(C)[C@@H](C)C(=O)N[C@@H](CC(N)=O)C(=O)N2CCC[C@H]2C(=O)N[C@@H](Cc2cnc[nH]2)C(=O)N[C@@H](CC(N)=O)C(=O)N2C[C@H](O)C[C@H]2C(=O)N[C@@H](Cc2c[nH]c3ccccc23)C(=O)N[C@@H](CO)C(=O)N[C@@H](Cc2c[nH]c3ccccc23)C(=O)N1C (stereo partly drawn) [Example 9065] ({CH2CO}-Y[NMeA]NPHN[Hyp]WSW[NMeNle][NMeNle]R[ξC]G-NH2; thioether N-14)
13 | 8.17 to 9.41 | 8.33 to 9.80 | CCCC[C@H]1C(=O)N(C)[C@@H](CCCC)C(=O)N[C@@H](CCCNC(=N)N)C(=O)NC(C(=O)NCC(N)=O)CSCC(=O)N[C@@H](Cc2ccc(O)cc2)C(=O)N(C)[C@@H](C)C(=O)N[C@@H](CC(N)=O)C(=O)N2CCC[C@H]2C(=O)N[C@@H](Cc2cnc[nH]2)C(=O)N[C@@H](CC(N)=O)C(=O)N2C[C@H](O)C[C@H]2C(=O)N[C@@H](Cc2c[nH]c3ccccc23)C(=O)N[C@@H](CO)C(=O)N[C@@H](Cc2csc3ccccc23)C(=O)N1C (stereo partly drawn) [Example 9066] ({CH2CO}-Y[NMeA]NPHN[Hyp]WS[Bta][NMeNle][NMeNle]R[ξC]G-NH2; thioether N-14)
14 | 8.17 to 9.41 | 8.33 to 9.80 | CCCC[C@H]1C(=O)N(C)[C@@H](CCCC)C(=O)N[C@@H](CCCNC(=N)N)C(=O)NC(C(=O)NCC(N)=O)CSCC(=O)N[C@@H](Cc2ccc(O)cc2)C(=O)N(C)[C@@H](C)C(=O)N[C@@H](CC(N)=O)C(=O)N2CCC[C@H]2C(=O)N[C@@H](Cc2cnc[nH]2)C(=O)N[C@@H](CO)C(=O)N2CCC[C@H]2C(=O)N[C@@H](Cc2c[nH]c3ccccc23)C(=O)N[C@@H](CO)C(=O)N[C@@H](Cc2c[nH]c3ccccc23)C(=O)N1C (stereo partly drawn) [Example 9067] ({CH2CO}-Y[NMeA]NPHSPWSW[NMeNle][NMeNle]R[ξC]G-NH2; thioether N-14)
15 | 8.17 to 9.41 | 8.33 to 9.80 | CCCC[C@H]1C(=O)N(C)[C@@H](CCCC)C(=O)N[C@@H](CCCNC(=N)N)C(=O)NC(C(=O)NCC(N)=O)CSCC(=O)N[C@@H](Cc2ccc(O)cc2)C(=O)N(C)[C@@H](C)C(=O)N[C@@H](CC(N)=O)C(=O)N2CCC[C@H]2C(=O)N[C@@H](Cc2cnc[nH]2)C(=O)N[C@@H](CO)C(=O)N2C[C@H](O)C[C@H]2C(=O)N[C@@H](Cc2c[nH]c3ccccc23)C(=O)N[C@@H](CO)C(=O)N[C@@H](Cc2c[nH]c3ccccc23)C(=O)N1C (stereo partly drawn) [Example 9069] ({CH2CO}-Y[NMeA]NPHS[Hyp]WSW[NMeNle][NMeNle]R[ξC]G-NH2; thioether N-14)
